# Like-named read-outs stand apart in the source and are kept apart here.
# Tests used:
# Type in all cases: cell-based
# [1] = system: E. coli ATCC BAA-196_TEM-10; assay: MIC by broth microdilution (CLSI), E. coli ATCC BAA-196; conditions: Escherichia coli
# Experimental: (§1) Measurement of a minimum growth inhibition concentration (MIC: μg/mL) was performed according to CLSI (Clinical and Laboratory Standards Institute) method, by broth microdilution method, using an inoculation microbe amount of 10000 cfu/well and cation-adjusted Mueller Hinton broth containing human-derived 20 μM apo-transferrin as a test medium.
# [2] = system: K. pneumoniae ATCC 700603_SHV18; assay: MIC by broth microdilution (CLSI), K. pneumoniae ATCC 700603; conditions: Klebsiella pneumoniae
# Experimental: as §1
# [3] = system: P. aeruginosa SR24; assay: MIC by broth microdilution (CLSI), P. aeruginosa SR24; conditions: Pseudomonas aeruginosa
# Experimental: as §1
# [4] = system: P. aeruginosa SR27060(metallo); assay: MIC by broth microdilution (CLSI), P. aeruginosa SR27060; conditions: Pseudomonas aeruginosa; P. aeruginosa SR27060, IMP-1, MBL producing carbapenem-resistant strain; 10000 cfu/well; cation-adjusted Mueller Hinton broth with 20 μM human apo-transferrin; read-out: minimum growth inhibition concentration (MIC)
# Experimental: as §1
# [5] = system: A. baumannii SR24396; assay: MIC by broth microdilution (CLSI), A. baumannii SR24396; conditions: Acinetobacter baumannii, 10000 cfu/well, cation-adjusted Mueller Hinton broth with 20 μM human apo-transferrin, read-out: minimum growth inhibition concentration (MIC)
# Experimental: as §1
# [6] = system: P. aeruginosa SR27001(MDRP, IMP-1+); assay: MIC by broth microdilution (CLSI), P. aeruginosa SR27001; conditions: Pseudomonas aeruginosa, read-out: minimum growth inhibition concentration (MIC)
# Experimental: as §1
# [7] = ATCCBAA196, E. coli ATCC BAA-196, TEM-10, ESBL producing strain, 10000 cfu/well, cation-adjusted Mueller Hinton broth with 20 μM human apo-transferrin, read-out: minimum growth inhibition concentration (MIC)
# [8] = ATCC700603, K. pneumoniae ATCC 700603, SHV-18, ESBL producing strain, 10000 cfu/well, cation-adjusted Mueller Hinton broth with 20 μM human apo-transferrin, read-out: minimum growth inhibition concentration (MIC)
# [9] = P. aeruginosa SR24, Ceftazidime-sensitive strain, 10000 cfu/well, cation-adjusted Mueller Hinton broth with 20 μM human apo-transferrin, read-out: minimum growth inhibition concentration (MIC)
# [10] = P. aeruginosa SR27001, MDRP, IMP-1, MBL producing carbapenem-resistant strain, 10000 cfu/well, cation-adjusted Mueller Hinton broth with 20 μM human apo-transferrin
Compound,"MIC [1, 7] [µg/mL]","MIC [2, 8] [µg/mL]","MIC [3, 9] [µg/mL]",MIC [4] [µg/mL],MIC [5] [µg/mL],"MIC [6, 10] [µg/mL]","MIC ([1]; ATCCBAA196, read-out: minimum growth inhibition concentration (MIC)) [µg/mL]","MIC ([2]; ATCC700603, read-out: minimum growth inhibition concentration (MIC)) [µg/mL]","MIC ([3]; SR24, read-out: minimum growth inhibition concentration (MIC)) [µg/mL]",MIC [6] [µg/mL]
C[N+]1(CC2=C(C(=O)[O-])N3C(=O)[C@@H](NC(=O)/C(=N\OC[C@H](NC(=O)c4ccc(O)c(O)c4Cl)C(=O)O)c4csc(N)n4)[C@H]3SC2)[C@@H]2CC[C@H]1C[C@@H](N)C2 (stereo partly shown) [Compound I-1],0.25,2,0.125,0.25,≤ 0.031,0.5,,,,
Nc1nc(/C(=N/OC[C@H](NC(=O)c2ccc(O)c(O)c2Cl)C(=O)[O-])C(=O)N[C@@H]2C(=O)N3C(C(=O)[O-])=C(C[n+]4cccc5c4CCC5)CS[C@H]23)cs1.[Na+] [Compound I-3],1,,0.25,1,0.125,4,,,,
CC1(C)CCc2ccc[n+](CC3=C(C(=O)[O-])N4C(=O)[C@@H](NC(=O)/C(=N\OC[C@H](NC(=O)c5ccc(O)c(O)c5Cl)C(=O)[O-])c5csc(N)n5)[C@H]4SC3)c21.[Na+] [Compound I-4],0.5,,0.125,,,,,,,
Nc1nc(/C(=N/OC[C@H](NC(=O)c2ccc(O)c(O)c2Cl)C(=O)[O-])C(=O)N[C@@H]2C(=O)N3C(C(=O)[O-])=C(Cn4ccc(=O)c(O)c4)CS[C@H]23)cs1.[Na+].[Na+] [Compound I-5],8,,,,≤ 0.031,,,,,
C[N+]1(CC2=C(C(=O)[O-])N3C(=O)[C@@H](NC(=O)/C(=N\OC(CNC(=O)c4ccc(O)c(O)c4Cl)C(=O)O)c4csc(N)n4)[C@H]3SC2)[C@@H]2CC[C@H]1C[C@@H](N)C2 (stereo partly shown) [Compound I-6],0.25,0.125,0.125,0.25,≤ 0.031,0.25,,,,
C[N+]1(CC2=C(C(=O)[O-])N3C(=O)[C@@H](NC(=O)/C(=N\OC(CNC(=O)c4ccc(O)c(O)c4Cl)C(=O)[O-])c4csc(N)n4)[C@H]3SC2)[C@@H]2CCC[C@H]1CC2.[Na+] (stereo partly shown) [Compound I-10],,,,,,,1,0.5,0.25,2
Nc1nc(/C(=N/O[C@@H](CNC(=O)c2ccc(O)c(O)c2Cl)C(=O)[O-])C(=O)N[C@@H]2C(=O)N3C(C(=O)[O-])=C(C[N+]45CCC(CNC(=O)CC[C@H](N)C(=O)O)(CC4)CC5)CS[C@H]23)cs1.[Na+] [Compound I-12],2,1,0.25,,,4,,,,
CC1(C)CCc2ccc[n+](CC3=C(C(=O)[O-])N4C(=O)[C@@H](NC(=O)/C(=N\O[C@@H](CNC(=O)c5ccc(O)c(O)c5Cl)C(=O)[O-])c5csc(N)n5)[C@H]4SC3)c21.[Na+] [Compound I-14],0.5,1,0.5,,,,,,,
Nc1nc(/C(=N/OC(CNC(=O)c2ccc(O)c(O)c2Cl)C(=O)[O-])C(=O)N[C@@H]2C(=O)N3C(C(=O)[O-])=C(C[N+]45CCC(CC4)CC5)CS[C@H]23)c(Cl)s1.[Na+] (stereo partly shown) [Compound I-15],1,1,0.25,,,4,,,,

# More lines, main results first:
"MIC [1, 7] [µg/mL]","MIC [2, 8] [µg/mL]","MIC [3, 9] [µg/mL]",MIC [4] [µg/mL],MIC [5] [µg/mL],"MIC [6, 10] [µg/mL]",Compound,"MIC ([1]; ATCCBAA196, read-out: minimum growth inhibition concentration (MIC)) [µg/mL]","MIC ([2]; ATCC700603, read-out: minimum growth inhibition concentration (MIC)) [µg/mL]","MIC ([3]; SR24, read-out: minimum growth inhibition concentration (MIC)) [µg/mL]",MIC [6] [µg/mL]
0.25,4,0.125,0.125,0.063,0.25,NCC[N+]1(CC2=C(C(=O)[O-])N3C(=O)[C@@H](NC(=O)/C(=N\OC[C@H](NC(=O)c4ccc(O)c(O)c4Cl)C(=O)O)c4csc(N)n4)[C@H]3SC2)CCCC1 [Compound I-2],,,,
0.125,0.063,0.125,0.125,≤ 0.031,0.5,NCC[N+]1(CC2=C(C(=O)[O-])N3C(=O)[C@@H](NC(=O)/C(=N\OC(CNC(=O)c4ccc(O)c(O)c4Cl)C(=O)O)c4csc(N)n4)[C@H]3SC2)CCCC1 (stereo partly shown) [Compound I-7],,,,
0.5,1,0.125,4,0.063,8,C[N+]1(CC2=C(C(=O)[O-])N3C(=O)[C@@H](NC(=O)/C(=N\OC(CNC(=O)c4ccc(O)c(O)c4Cl)C(=O)[O-])c4csc(N)n4)[C@H]3SC2)CCCC1.[Na+] (stereo partly shown) [Compound I-8],,,,
1,4,0.25,,,4,C[N+]1(CC2=C(C(=O)[O-])N3C(=O)[C@@H](NC(=O)/C(=N\O[C@@H](CNC(=O)c4ccc(O)c(O)c4Cl)C(=O)[O-])c4csc(N)n4)[C@H]3SC2)CC2CCCC2C1.[Na+] (stereo partly shown) [Compound I-11],,,,

# Reference: patent publication US9290515B2, “Cephem derivative having catechol group” (SHIONOGI & CO., LTD., priority 2011, dated 2016)
